According to US20220370636A1, “NICOTINAMIDE ADENINE DINUCLEOTIDE ACTIVATOR AND USE THEREOF” (University of South Florida, priority 2021, published 2022):

Key:
db/db mice [1] = assay: Skeletal muscle histology, TEM, SDH staining and mtDNA copy number in db/db mice; format: in vivo
Protocol: Haematoxylin and eosin staining. The tibialis anterior (TA) muscle was dissected from the mice, and embedded in optimal cutting temperature (OCT), frozen in isopentane chilled in liquid nitrogen and stored at […]. […] Images were obtained at ×10 and ×20 magnifications with the Olympus IX73 inverted microscope and were quantified using CellSens Standard software (Olympus Soft Imaging Solution, USA).
Transmission electron microscopy. The EDL muscles were fixed with 2.5% glutaraldehyde in 0.1 M sodium phosphate buffer for 2 h at RT, and overnight at 4° C., followed by washing in buffer and fixation with 1% osmium tetroxide in buffer for 2 h at 4° C. After rinsing in buffer, the samples were then dehydrated in ethanol and acetone at RT and infiltrated in acetone:pure resin (Embed812) mix in vacuum with desiccant for 1 h and in pure resin for 4 h and embedded in the embedding mix. Polymerization of the embedding mix was carried out overnight at 70° C. in the embedding moulds. Semithin (1 μm) and ultrathin (70 nm) sections were cut using a Reichert Ultracut microtome machine. The sections were then stained with 2% uranyl acetate and contrasted with lead citrate as per standard protocol. Images were taken at ×15,000, ×30,000, and ×50,000 magnifications with a JOEL1400 transmission electron microscope for the analysis of myofibre diameter and the mitochondrial area.
Mitochondrial DNA (mtDNA) copy number. Total DNA was extracted from gastrocnemius (GAS) muscle using DNeasy Blood and Tissue kit (Qiagen, Md., USA) according to the manufacturer's protocol. The quantitative real-time PCR (qPCR) analysis of the mtDNA/nDNA was performed using iTaq Universal SYBR green supermix (Bio-Rad Laboratories, CA, USA). The mouse 16S was used as the mitochondrial gene and HK2 was used as the nuclear gene to obtain the mitochondrial copy number.
Succinate dehydrogenase staining. The 10 μm thick transverse cryosections of TA muscles were cut at the mid-belly region using Leica CM 1860 AgProtect cryostat machine. Briefly, the tissue sections were air-dried for 45 minutes, and incubated in 50 mM sodium succinate dibasic hexahydrate and 1.25 mM nitroblue tetrazolium in 0.1 M phosphate buffer (Sigma-Aldrich, MO, USA) for 30 min. The reaction was stopped washing in deionized water, and the sections were dehydrated in a series of graded ethanol and cleared using xylene. The sections were then mounted with DPX mountant, and the images were captured at ×20 magnification of the Olympus IX73 inverted microscope using CellSens Standard software (Olympus Soft Imaging Solution, USA) and the succinate dehydrogenase (SDH) positive myofibres were quantified with ImageJ software.

db/db mice [2] = assay: Grip strength and voluntary running wheel in db/db mice; format: in vivo; conditions: 4 weeks, vs db-Veh
Protocol: Grip strength and voluntary running wheel. The fore-limb and hind-limb grip strengths were measured with the use of Chatillon force measurement DFE II grip strength meter (Ametek, Columbus Instruments, OH, USA). The average of five measurements per mice is represented as KGF/kg body weight for both the fore-limb and hind-limb grip strengths measured. The overnight voluntary running wheel experiments were carried out with the Columbus Instruments O297, the CI Multi-Device Interface (Columbus Instruments, OH, USA) per manufacturer's recommendations.

[3] = tibialis anterior, H&E, vs db-Veh

Compound: OC(CNc1ccccc1)Cn1c2ccc(Br)cc2c2cc(Br)ccc21 (stereo not drawn) [P7C3, 3,6-Dibromo-a-[(phenylamino)methyl]-9H-carbazole-9-ethanol]
- SDH positive myofibres (db/db mice [1]; TA muscle, 4 weeks): significantly improved
- mitochondria morphology and function (db/db mice [1]; TEM, db/db): improved
- myofibre diameter of the extensor digitorum longus muscle (db/db mice [1]; TEM, vs db-Veh): increase
- 16S expression (mtDNA) (db/db mice [1]; gastrocnemius, vs db-Veh): significantly decreased
- medium and larger sized myofibres cross-sectional areas (db/db mice [1]; [3]): increase
- small myofibres cross-sectional areas (0-1500 μm^2) (db/db mice [1]; [3]): significant decrease
- fore-limb grip strength (db/db mice [2]): significant increase
- hind-limb grip strength (db/db mice [2]): significant increase
- voluntary running wheel distance covered (db/db mice [2]): significant in-crease
